# Data as given in patent publication US20260345596A1, “TREATMENT OF LOCALLY ADVANCED OR METASTATIC UROTHELIAL CARCINOMA WITH ERDAFINITIB” (priority 2023, published 2026).
# “Also recorded” adds a separate entry of the source.
# Tests used:
# [1] = tested on: locally advanced or metastatic urothelial carcinoma with FGFR alterations; assay: Study BLC3001 (NCT03390504, THOR) Cohort 1: efficacy of erdafitinib versus chemotherapy; type: in vivo, human
# Procedure: Subjects are assigned to Cohort 1 or Cohort 2 based upon prior treatment with an anti-PD-(L)1 agent. […] Cohort 1 and Cohort 2 are assessed independently.
# Each potential subject must satisfy all of the following criteria to be enrolled in the study: • 1. ≥18 years of age (or the legal age of consent in the jurisdiction in which the study is taking place) • 2. […] Minor components (<50% overall) of variant histology such as glandular or squamous differentiation, or evolution to more aggressive phenotypes such as sarcomatoid or micropapillary change are acceptable • 3. Metastatic or surgically unresectable urothelial cancer • 4. Documented progression of disease, defined as any progression that requires a change in treatment, prior to randomization • 5. Prior treatment with an anti-PD-(L)1 agent as monotherapy or as combination therapy; no more than 2 prior lines of systemic treatment. […] These subjects will however still be eligible only for Cohort 1.
# Each dose should be taken at approximately the same time each day, with or without food. The study drug is to be taken with approximately 240 mL (8 ounces) of water. The tablets should be swallowed intact and subjects should not attempt to dissolve them in water, tablets must not be broken or chewed. Subjects should avoid consuming grapefruit or Seville oranges due to CYP450 3A4/5 inhibition.
# No concomitant treatment is required for these subjects.
# Subjects randomized to chemotherapy in Arm 1B (see FIG. 1) receive vinflunine 320 mg/m2 as a 20-minute intravenous infusion once every 3 weeks or docetaxel 75 mg/m2 as a 1-hour intravenous infusion every 3 weeks. Treatment with either agent will be administered until disease progression, intolerable toxicity, withdrawal of consent or decision by the investigator to discontinue treatment.
# The primary endpoint is OS. The primary efficacy analysis is based on the Intent-to-Treat (ITT) population that includes all randomized subjects in each cohort. The Kaplan-Meier method is used to estimate the distribution of OS for each treatment group within each cohort. The stratified log-rank test is used to compare survival curves of OS between the 2 treatment arms. The stratification factors to be used in the analysis are as follows: region (North America vs EU vs rest of world), ECOG performance status (0 or 1 vs 2), and disease distribution (presence vs absence of visceral metastases: lung, liver, or bone). Pre-specified strata combining will be implemented when some strata have too few OS events.
# The secondary efficacy endpoints are PFS, ORR (achievement of objective response), and Safety. Secondary end points also included DOR, change from baseline in patient reported outcomes (Functional Assessment of Cancer Therapy—Bladder Cancer, Patient-Global Impression of Severity, and the European Quality of Life—5 Dimensions—5 Levels). PFS is analyzed the same as OS. Kaplan-Meier method is used to estimate the distribution of DOR. ORR is analyzed by Cochran-Mantel-Haenszel chi-square test for randomized subjects with measurable disease at baseline. The analyses of the secondary efficacy endpoints include all randomized subjects (ITT subjects) unless otherwise specified. The family-wise type 1 error is strongly controlled at 5% (2-sided) for the secondary efficacy endpoints.
# Ophthalmologic examination at baseline included an Amsler grid test, optical coherence tomography scan (OCT), and ophthalmologic evaluation. An Amsler grid test was conducted at every cycle. Repeat OCT was done as clinically indicated based on the Amsler grid test or clinical assessment.
# O'Brien-Fleming boundaries were applied, implemented by the Lan-DeMets spending function for a total Type I error of 0.05. […] Stopping for futility was possible if the hazard ratio at the interim analysis exceeded 1.0, considering the totality of the data.
# Descriptive subgroup analyses were conducted, but with no adjustment for multiplicity.
# [2] = tested on: bacteria; assay: Bacterial reverse mutation (Ames) assay
# [3] = Protein binding in patients; conditions: human, in vivo
# [4] = tested on: QTc interval; assay: Cardiac electrophysiology: QTc interval in dose escalation and dose expansion study (187 patients); conditions: large effect = ≥20 ms
# [5] = tested on: rats; assay: 3-month repeat-dose toxicity study, female reproductive organs; conditions: exposure less than human AUC at maximum recommended dose
# [6] = tested on: cell lines expressing FGFR genetic alterations; assay: Cell viability of cell lines expressing FGFR genetic alterations; type: cell-based; conditions: cell lines with FGFR genetic alterations
smiles,measurement,setting,value
"COc1cc(OC)cc(N(CCNC(C)C)c2ccc3ncc(-c4cnn(C)c4)nc3c2)c1 [Erdafitinib, N-(3,5-dimethoxyphenyl)-N′-(1-methylethyl)-N-[3-(1-methyl-1H-pyrazol-4-yl)quinoxalin-6-yl]ethane-1,2-diamine]",Disease control rate (CR + PR + SD),[1]; ITT,112 (82.4%) n (%)
same,Progression-free survival (PFS): number of events (%),[1]; ITT,101 (74.3%) number (%)
same,Overall Survival (OS): number of events (%),"[1]; ITT, 8 mg oral once daily, up-titration to 9 mg, chemotherapy docetaxel or vinflunine",77 (56.6%) number (%)
same,"Objective response rate, ORR (CR + PR)","[1]; ITT, RECIST v1.1, investigator",62 (45.6%) n (%)
same,OS events (deaths),"[1]; ITT, at data cut, ~75% information fraction, count",77
same,PFS events,"[1]; ITT, at data cut, count",101
same,Not evaluable (NE),"[1]; ITT, best overall response",10 (7.4%) n (%)
same,Progressive disease (PD),"[1]; ITT, best overall response",14 (10.3%) n (%)
same,"Complete response, CR (%)","[1]; ITT, best overall response, RECIST v1.1, investigator",9 (6.6%) n (%)
same,Complete response (CR),"[1]; ITT, investigator",6.6%
same,Partial response (PR),"[1]; ITT, investigator",39.0%
same,Patients alive at 6 months,"[1]; estimated, (95% CI)","85% (95% CI, 77 to 90)"
same,Patients alive at 12 months,"[1]; estimated, (95% CI)","51% (95% CI, 41 to 60)"
same,Median overall survival (years),[1]; mUC and FGFR alt after prior anti-PD-(L)1,about 1 year
same,Improvement of disease control rate,[1]; versus chemotherapy,about 39%
same,Objective response outcome in words,[1]; versus chemotherapy,"approximately a four-fold higher probability of achieving an objective response; also recorded: The superiority of Erdafitinib relative to chemotherapy, in terms of ORR, was established; also recorded: significantly greater for Erdafitinib, with similar DOR; also recorded: generally consistent in the subgroups evaluated"
same,Overall survival outcome in words,[1]; versus chemotherapy,"The superiority of Erdafitinib relative to chemotherapy, in terms of OS, was established; also recorded: generally consistent across clinically meaningful subgroups including age group, FGFR alteration type, baseline ECOG PS, presence/absence of visceral metastases and PD-L1 status; also recorded: significantly prolonged or extended OS compared to chemotherapy; also recorded: consistent across clinically relevant subgroups; also recorded: significantly longer with erdafitinib versus chemotherapy; also recorded: significantly prolonged median overall survival compared with chemotherapy"
same,Progression-free survival outcome in words,[1]; versus chemotherapy,"The superiority of Erdafitinib relative to chemotherapy, in terms of PFS, was established; also recorded: significantly prolonged PFS; also recorded: generally consistent in the subgroups evaluated"
same,Confirmed complete response (CR),[1]; ≥2 consecutive assessments,5.1%
same,Confirmed partial response (PR),[1]; ≥2 consecutive assessments,30.1%
same,Mutagenicity (Ames),[2],not mutagenic
same,Dose proportionality of exposure (Cmax and AUC),"0.5 to 12 mg, single and repeat once daily dosing",increased proportionally across the dose range of 0.5 to 12 mg
same,Effect of food on exposure,high-fat and high-calorie meal,No clinically meaningful differences in erdafitinib exposure
same,Time to steady state,once daily dosing,2 weeks
same,"Effect of age, sex, race, body weight, hepatic or renal impairment on exposure",specific populations,"No clinically meaningful effects on erdafitinib exposure were observed based on age (21-92 years), sex, race (White, Hispanic or Asian), body weight (36-166 kg), mild (Child-Pugh A) or moderate (Child-Pugh B) hepatic impairment, or mild to moderate renal impairment (eGFR 30 to 89 mL/min/1.73 m^2)"
same,fraction unbound,[3],0.003
same,Effect on QTc interval,[4],"no large effect (i.e., ≥20 ms) on the QTc interval"
same,Effects on female reproductive organs,[5],showed effects on female reproductive organs (necrosis of the ovarian corpora lutea)
same,Cell viability,[6],"decreased cell viability in cell lines expressing FGFR genetic alterations, including point mutations, amplifications, and fusions"
